Assay results taken from patent US8541365B2, “Dendrimeric compounds comprising amino acids, hyperbranched core compound, process for preparation of dendrimeric compounds comprising amino acids and hyperbranched core compound, and use thereof” (Instytut Chemii Organicznej, Polska Akademia Nauk, priority 2008, dated 2013).
Read-outs that look alike come from different tables or passages of the source.

Legend:
C. albicans ATCC 10231 = tested on: C. albicans ATCC 10231
Procedure: Values of a minimal inhibitory concentration—MIC of compounds according to the invention for bacterial strains were assayed by a standard method of microdilutions on a liquid substrate (Clinical and Laboratory Standards Institute 2007. Methods for Dilution Antimicrobial Susceptibility Tests for Bacteria That Grow Aerobically. Approved Standard—Seventh Edition. M7-A7. Clinical and Laboratory Standards Institute, Wayne, Pa., USA).
A series of double dilutions of the tested compounds in DMSO was prepared. They were then diluted 95× in CAMHB (Cation Adjusted Mueller—Hinton Broth).
Bacteria were cultured for 24 h at 35° C. under aerobic conditions on a solid TSA (Triptic Soy Agar) medium. A volume of a proper test was 0.1 ml and was composed of: 0.005 ml of a saline suspension of bacteria at a density of 10^7 CFU/ml (final bacteria amount of 5×10^5/ml) and 0.095 ml of a tested compound CAMHB solution. Final concentrations of compounds in the proper test were (μg/ml): 128, 64, 32, 16, 8, 4, 2, 1.
e) C. albicans ATCC 10231.

[1] = tested on: human melanoma cells (MEW 155); conditions: MEW 155 cells, 3 days culture
Procedure: Human melanoma cells (MEW 155) received from Institute of Oncology were inoculated on Petri dishes (Ø3 cm, Nunc) to the number of about 75 000, suspended in 3 ml of Eagle medium+10% FBS+antibiotics. Immediately after the inoculation, solutions of tested substances were added to the cells (a substance +20 ml PBS) at 0.5 ml per dish. After culturing for 3 days, numbers of cells (all, dead and alive) at each dish were determined with NucleoCounter apparatus (Chemometec).

S. aureus ATCC 25923 = assay type: cell-based, Staphylococus aureus subsp. aureus; conditions: S. aureus ATCC 25923; microdilution in CAMHB, 18 h at 35° C.
Procedure: (§1) Titration plates with a, b, d strains were incubated for 18 h at 35° C. under aerobic conditions, and the c strain was incubated for 18 h at 33° C. under aerobic conditions.
b) Staphylococus aureus subsp. aureus ATCC 25923,

E. coli ATTC 25922 = assay type: cell-based, Escherichia coli; conditions: E. coli ATTC 25922; microdilution in CAMHB, 18 h at 35° C.
Procedure: as §1
d) Escherichia coli ATCC 25922

S. aureus ATTC 43300 = assay type: cell-based, Staphylococus aureus subsp. aureus; conditions: S. aureus ATTC 43300; microdilution in CAMHB, 18 h at 33° C.
Procedure: as §1
c) Staphylococus aureus subsp. aureus ATCC 43300,

P. aeruginosa ATTC 27853 = assay type: cell-based, Pseudomonas aeruginosa; conditions: P. aeruginosa ATTC 27853; microdilution in CAMHB, 18 h at 35° C.
Procedure: as §1
a) Pseudomonas aeruginosa ATCC 27853,

Structure (SMILES)	Minimal inhibitory concentration (MIC) (C. albicans ATCC 10231)	Live cells (%) ([1]; concentration 25.7 μMol dm^−3)	Minimal inhibitory concentration (MIC) (S. aureus ATCC 25923)	Minimal inhibitory concentration (MIC) (E. coli ATTC 25922)	Minimal inhibitory concentration (MIC) (S. aureus ATTC 43300)	Live cells (%) ([1]; concentration 10.0 μMol dm^−3)	Minimal inhibitory concentration (MIC) (P. aeruginosa ATTC 27853)
CCCCCCCCCCCCNC(=O)[C@H](CCCN(CCC(=O)NCCNC(=O)[C@H](CCCCN)NC(=O)OCc1ccccc1Cl)CCC(=O)NCCNC(=O)[C@H](CCCCN)NC(=O)OCc1ccccc1Cl)N(CCC(=O)NCCNC(=O)[C@H](CCCCN)NC(=O)OCc1ccccc1Cl)CCC(=O)NCCNC(=O)[C@H](CCCCN)NC(=O)OCc1ccccc1Cl [Compound 109]	69 μM/L	1.5%					
NC[C@H](NC(=O)OCc1ccccc1)C(=O)NCCNC(=O)CCN(CCCC[C@@H](C(=O)NCCc1c[nH]c2ccccc12)N(CCC(=O)NCCNC(=O)[C@H](CN)NC(=O)OCc1ccccc1)CCC(=O)NCCNC(=O)[C@H](CN)NC(=O)OCc1ccccc1)CCC(=O)NCCNC(=O)[C@H](CN)NC(=O)OCc1ccccc1 [Compound 105]	81 μM/L		38 μM/L	81 μM/L	81 μM/L	97.7%	81 μM/L
